In patent publication EP0840781B1, “METHODS AND DEVICES FOR THE REMOVAL OF PSORALENS FROM BLOOD PRODUCTS” (Cerus Corporation, priority 1995, dated 1996):
Read-outs that look alike come from different tables or passages of the source.

Experiments:
HIV-1 = conditions: 1 Minute Irradiation, HIV Starting Titer Approximately 5 Logs (Table 10)
Description: Pathogen inactivation efficiency of several compounds described herein was evaluated by examining the ability of the compounds to inactivate cell-free virus (HIV). Inactivation of cell-free HIV was performed as follows.
As in the R17 assay, small aliquots of the compounds listed in TABLES 10 and 11, below, at the concentrations listed in the table, were added to stock HIV-1 to a total of 0.5 mL. The stock HIV (10^5 - 10^7 plaque forming units/mL) was in DMEM/15% FBS. […] Controls included HIV-I stock only, HIV-1 plus UVA only, and HIV-I plus the highest concentration of each psoralen tested, with no UVA. Post irradiation. all samples were store frozen at -70° C until assayed for infectivity by a microtiter plaque assay. Aliquots for measurement of residual HIV infectivity in the samples treated with a compound of the present invention were withdrawn and cultured.
Residual HIV infectivity was assayed using an MT-2 infectivity assay. […] The assay medium was 85% DMEM (with a high glucose concentration) containing 100 µg of streptomycin, 100 U of penicillin, 50 µg of gentamicin, and 1 µg of amphotericin B per mL, 15% FBS and 2 µg of Polybrene (Sigma Chemical Co., St. Louis, Mo.) per mL. Test and control samples from the inactivation procedure were diluted in 50% assay medium and 50% normal human pooled plasma. The samples were serially diluted directly in 96-well plates (Coming Glass Works, Coming, N.Y.). The plates were mixed on an oscillatory shaker for 30 seconds and incubated at 37°C in a 5% CO2 atmosphere for 1 to 18 hours. […] After an additional 1 hour of incubation at 37°C in 5% CO2, 0.075 mL of assay medium containing 1.6% SeaPlaque agarose (FMC Bioproducts, Rockland, Maine) and prewarmed to 38.5°C was added to each well. The plates were kept at 37°C for a few minutes until several plates had accumulated and then centrifuged in plate carriers at 600 x g for 20 minutes in a centrifuge precooled to 10°C. In the centrifuge, cell monolayers formed prior to gelling of the agarose layer. The plates were incubated for 5 days at 37°C in 5% CO2 and stained by the addition of 0.05 mL of 50 µg/mL propidium iodide (Sigma Chemical Co.) in phosphate-buffered saline (pH 7.4) to each well. After 24 to 48 hours, the red fluorescence-stained microplaques were visualized by placing the plates on an 8,000 µW/cm^2 304 nm UV light box (Fotodyne, Inc., New Berlin, Wis.). The plaques were counted at a magnification of x20 to x25 through a stereomicroscope.

[1] = test system: Salmonella typhimurium tester strains TA97a, TA98, TA100, TA102, TA1537 and TA1538
Excerpt: The second property that is important in testing a compound for use in methods described herein is mutagenicity. The most widely used mutagen/carcinogen screening assay is the Ames test. This assay is described by D.M. Maron and B.N. Ames in Mutation Research 113:173 ( 1983) and a specific screen is described in detail in Example 17, below. The Ames test utilizes several unique strains of Salmonella typhimurium that are histidine- dependent for growth and that lack the usual DNA repair enzymes. The frequency of normal mutations that render the bacteria independent of histidine (i.e., the frequency of spontaneous revertants) is low. The test allows one to evaluate the impact of a compound on this revenant frequency.
Because some substances are not mutagenic by themselves, but are converted to a mutagen by metabolic action, the compound to be tested is mixed with the bacteria on agar plates along with the liver extract. The liver extract serves to mimic metabolic action in an animal.
The mixtures are allowed to incubate. Growth of bacteria (if any) is checked by counting colonies.
In this example the compounds described herein are tested for their dark mutagenicity using an Ames assay. The procedures used for the Salmonella mutagenicity test as described in detail by Maron and Ames were followed exactly. Maron, D.M. and B.N. Ames, Mutation Research 113: 173 ( 1983). A brief description for each procedure is given here. The tester strains TA97a, TA98, TA 100, TA102, TA1537 and TA1538 were obtained from Dr. Ames. TA97a, TA98, TA1537 and TA1538 are frameshift tester strains. TA100 and TA102 are base-substitution tester strains. Upon receipt each strain was cultured under a variety of conditions to confirm the genotypes specific to the strains.
The first tests done with the strains were to determine the range of spontaneous reversion for each of the strains. With each mutagenicity experiment the spontaneous reversion of the tester strains to histidine independence was measured and expressed as the number of spontaneous revertants per plate. This served as the background controls.
For all experiments, the pre-incubation procedure was used. In this procedure one vial of each tester strain was thawed and 20 µL of this culture was added to 6 mL of Oxoid Nutrient Broth #2. This solution was allowed to shake for 10 hours at 37°C. In the pre-incubation procedure, 0.1 mL of this overnight culture was added to each of the required number of sterile test tubes. To half of the tubes 0.5 mL of a 10% S-9 solution containing Aroclor 1254 induced rat liver extract (Molecular Toxicology Inc., Annapolis, MD), and MgCl2, KCl, glucose-6-phosphate, NADP, and sodium phosphate buffer (Sigma, St. Louis, Missouri) were added. To the other half of the tubes 0.5 mL of 0.2M sodium phospate buffer, pH 7.4, was used in place of the S-9 mixture (the - S9 samples). Finally 0.1 mL of the test solution containing either 0, 0.1, 0.5, 1, 5, 10, 50, 100, 250, or 500 µg/mL of the test compound was added. The 0.7 mL mixture was vonexed and then pre-incubated while shaking for 20 minutes at 37°C. After shaking, 2 mL of molten top agar supplemented with histidine and biotin were added to the 0.7 mL mixture and immediately poured onto a minimal glucose agar plate (volume of base agar was 20 mL). The top agar was allowed 30 minutes to solidify and then the plates were inverted and incubated for 44 hours at 37°C. After incubation the number of revertant colonies on each plate were counted.
Maron and Ames (1983) describe the conflicting views with regard to the statistical treatment of data generated from the test.

[2] = two-fold or greater increase in revertants above background and dose dependent response

Cc1oc2c(C)c3oc(=O)cc(C)c3cc2c1CN [AMT, 4'-Aminomethyl-4,5',8-trimethylpsoralen, reference compound]
HIV Log Kill (HIV-1; 16 µM): 1.4 | revertant colonies, TA97a +S9 ([1]; 0.1 µg/plate): -23 | revertant colonies, TA97a -S9 ([1]; 0.1 µg/plate): 14 | revertant colonies, TA98 +S9 ([1]; 0.1 µg/plate): 1 | revertant colonies, TA98 -S9 ([1]; 0.1 µg/plate): 3 | revertant colonies, TA100 +S9 ([1]; 0.1 µg/plate): -16 | revertant colonies, TA100 -S9 ([1]; 0.1 µg/plate): -10 | revertant colonies, TA102 +S9 ([1]; 0.1 µg/plate): -20 | revertant colonies, TA102 -S9 ([1]; 0.1 µg/plate): 27 | revertant colonies, TA1537 +S9 ([1]; 0.1 µg/plate): 2 | revertant colonies, TA1537 -S9 ([1]; 0.1 µg/plate): 0 | revertant colonies, TA1538 +S9 ([1]; 0.1 µg/plate): 3 | revertant colonies, TA1538 -S9 ([1]; 0.1 µg/plate): 3 | revertant colonies, TA97a +S9 ([1]; 0.5 µg/plate): 32 | revertant colonies, TA97a -S9 ([1]; 0.5 µg/plate): 9 | revertant colonies, TA98 +S9 ([1]; 0.5 µg/plate): 3 | revertant colonies, TA98 -S9 ([1]; 0.5 µg/plate): 5 | revertant colonies, TA100 +S9 ([1]; 0.5 µg/plate): -12 | revertant colonies, TA100 -S9 ([1]; 0.5 µg/plate): 13 | revertant colonies, TA102 +S9 ([1]; 0.5 µg/plate): 5 | revertant colonies, TA102 -S9 ([1]; 0.5 µg/plate): 47 | revertant colonies, TA1537 +S9 ([1]; 0.5 µg/plate): 2 | revertant colonies, TA1537 -S9 ([1]; 0.5 µg/plate): 3 | revertant colonies, TA1538 +S9 ([1]; 0.5 µg/plate): 13 | revertant colonies, TA1538 -S9 ([1]; 0.5 µg/plate): 4 | revertant colonies, TA97a +S9 ([1]; 1 µg/plate): 32 | revertant colonies, TA97a -S9 ([1]; 1 µg/plate): 54 | revertant colonies, TA98 +S9 ([1]; 1 µg/plate): 21 | revertant colonies, TA98 -S9 ([1]; 1 µg/plate): 5 | revertant colonies, TA100 +S9 ([1]; 1 µg/plate): -19 | revertant colonies, TA100 -S9 ([1]; 1 µg/plate): 17 | revertant colonies, TA102 +S9 ([1]; 1 µg/plate): -17 | revertant colonies, TA102 -S9 ([1]; 1 µg/plate): 88 | revertant colonies, TA1537 +S9 ([1]; 1 µg/plate): 3 | revertant colonies, TA1537 -S9 ([1]; 1 µg/plate): 5 | revertant colonies, TA1538 +S9 ([1]; 1 µg/plate): 37 | revertant colonies, TA1538 -S9 ([1]; 1 µg/plate): 4 | revertant colonies, TA97a +S9 ([1]; 5 µg/plate): 149 | revertant colonies, TA97a -S9 ([1]; 5 µg/plate): 73 | revertant colonies, TA98 +S9 ([1]; 5 µg/plate): 232 | revertant colonies, TA98 -S9 ([1]; 5 µg/plate): 16 | revertant colonies, TA100 +S9 ([1]; 5 µg/plate): -6 | revertant colonies, TA100 -S9 ([1]; 5 µg/plate): 59 | revertant colonies, TA102 +S9 ([1]; 5 µg/plate): 51 | revertant colonies, TA102 -S9 ([1]; 5 µg/plate): 266 | revertant colonies, TA1537 +S9 ([1]; 5 µg/plate): 22 | revertant colonies, TA1537 -S9 ([1]; 5 µg/plate): 44 | revertant colonies, TA1538 +S9 ([1]; 5 µg/plate): 177 | revertant colonies, TA1538 -S9 ([1]; 5 µg/plate): 13 | revertant colonies, TA98 +S9 ([1]; 10 µg/plate): 403 | revertant colonies, TA98 -S9 ([1]; 10 µg/plate): 20 | revertant colonies, TA100 +S9 ([1]; 10 µg/plate): 17 | revertant colonies, TA100 -S9 ([1]; 10 µg/plate): 105 | revertant colonies, TA1537 +S9 ([1]; 10 µg/plate): 30 | revertant colonies, TA1537 -S9 ([1]; 10 µg/plate): 52 | revertant colonies, TA1538 +S9 ([1]; 10 µg/plate): 255 | revertant colonies, TA1538 -S9 ([1]; 10 µg/plate): 14 | revertant colonies, TA98 +S9 ([1]; 50 µg/plate): 620 | revertant colonies, TA98 -S9 ([1]; 50 µg/plate): 69 | revertant colonies, TA100 +S9 ([1]; 50 µg/plate): 52 | revertant colonies, TA100 -S9 ([1]; 50 µg/plate): 73 | revertant colonies, TA1537 +S9 ([1]; 50 µg/plate): 94 | revertant colonies, TA1537 -S9 ([1]; 50 µg/plate): 2688 | revertant colonies, TA98 +S9 ([1]; 100 µg/plate): 745 | revertant colonies, TA98 -S9 ([1]; 100 µg/plate): 114 | revertant colonies, TA100 +S9 ([1]; 100 µg/plate): 85 | revertant colonies, TA100 -S9 ([1]; 100 µg/plate): 75 | revertant colonies, TA1537 +S9 ([1]; 100 µg/plate): 686 | revertant colonies, TA1537 -S9 ([1]; 100 µg/plate): 2058 | revertant colonies, TA1537 +S9 ([1]; 100 µg/plate, Table 19 (B) experiment, background 7): 500 | revertant colonies, TA1537 -S9 ([1]; 100 µg/plate, Table 19 (B) experiment, background 8): 608 | revertant colonies, TA98 +S9 ([1]; 250 µg/plate): 933 | revertant colonies, TA98 -S9 ([1]; 250 µg/plate): 112 | revertant colonies, TA100 +S9 ([1]; 250 µg/plate): 89 | revertant colonies, TA100 -S9 ([1]; 250 µg/plate): 24 | revertant colonies, TA1537 +S9 ([1]; 250 µg/plate): 3738 | revertant colonies, TA1537 -S9 ([1]; 250 µg/plate): 434 | frameshift mutagenicity (Ames, summary) [1, 2]: frameshift mutagenicity at between 5 and 10 µg/plate in TA97a and TA98, at 5µg/plate in TA1537 and at 1 µg/plate in TA1538 | base-substitution mutagenicity (Ames, summary) ([1]; two-fold or greater increase in revertants above background and dose dependent response, TA100, TA102): no significant base-substitution mutations

Cc1oc2c(C)c3oc(=O)cc(C)c3cc2c1COCCN [Compound 2, 4'-(4-amino-2-oxa)butyl-4,5',8-trimethylpsoralen]
HIV Log Kill (HIV-1; 16 µM): 1.4 | HIV Log Kill (HIV-1; 32 µM): 3.8 | HIV Log Kill (HIV-1; 64 µM): >4.5 | revertant colonies, TA100 +S9 ([1]; 5 µg/plate): -18 | revertant colonies, TA100 -S9 ([1]; 5 µg/plate): 103 | revertant colonies, TA1538 +S9 ([1]; 5 µg/plate): 2 | revertant colonies, TA1538 -S9 ([1]; 5 µg/plate): -8 | revertant colonies, TA98 +S9 ([1]; 10 µg/plate): 24 | revertant colonies, TA98 -S9 ([1]; 10 µg/plate): 28 | revertant colonies, TA100 +S9 ([1]; 10 µg/plate): 1 | revertant colonies, TA100 -S9 ([1]; 10 µg/plate): 46 | revertant colonies, TA1537 +S9 ([1]; 10 µg/plate): 5 | revertant colonies, TA1537 -S9 ([1]; 10 µg/plate): 36 | revertant colonies, TA1538 +S9 ([1]; 10 µg/plate): 4 | revertant colonies, TA1538 -S9 ([1]; 10 µg/plate): -13 | revertant colonies, TA98 +S9 ([1]; 50 µg/plate): 35 | revertant colonies, TA98 -S9 ([1]; 50 µg/plate): 52 | revertant colonies, TA100 +S9 ([1]; 50 µg/plate): 115 | revertant colonies, TA100 -S9 ([1]; 50 µg/plate): 182 | revertant colonies, TA1537 +S9 ([1]; 50 µg/plate): 40 | revertant colonies, TA1537 -S9 ([1]; 50 µg/plate): 282 | revertant colonies, TA98 +S9 ([1]; 100 µg/plate): 53 | revertant colonies, TA98 -S9 ([1]; 100 µg/plate): 39 | revertant colonies, TA100 +S9 ([1]; 100 µg/plate): 96 | revertant colonies, TA100 -S9 ([1]; 100 µg/plate): 121 | revertant colonies, TA1537 +S9 ([1]; 100 µg/plate): 88 | revertant colonies, TA1537 -S9 ([1]; 100 µg/plate): 258 | revertant colonies, TA98 +S9 ([1]; 250 µg/plate): 69 | revertant colonies, TA98 -S9 ([1]; 250 µg/plate): 29 | revertant colonies, TA1537 +S9 ([1]; 250 µg/plate): 744 | revertant colonies, TA1537 -S9 ([1]; 250 µg/plate): 176 | revertant colonies, TA98 +S9 ([1]; 500 µg/plate): 63 | revertant colonies, TA98 -S9 ([1]; 500 µg/plate): 6 | revertant colonies, TA1537 +S9 ([1]; 500 µg/plate): 395 | revertant colonies, TA1537 -S9 ([1]; 500 µg/plate): 114 | frameshift mutagenicity (Ames, summary) [1, 2]: weak frameshift mutagenicity in the presence of S9 in TA98 and TA1537
